Patent US20230321123A1, “INHIBITORS OF PSEUDOMONAS AERUGINOSA VIRULENCE FACTOR LasB” (Helmholtz-Zentrum Für Infektionsforschung GmbH, priority 2020, published 2023)

Tests used:
LasB = LasB (Pseudomonas aeruginosa, UniProt Q02RJ6); experiment: biochemical; set-up: species or system P. aeruginosa; conditions: IC50 against LasB
ADAM17 (TACE) = ADAM17 (TACE) (Homo sapiens, UniProt P78536); experiment: Selectivity against human off-targets: ADAM17 (TACE); assay type: biochemical; conditions: read-out: IC50 ADAM17 (TACE)
ADAM17 (TACE), sequence (P78536 215-824): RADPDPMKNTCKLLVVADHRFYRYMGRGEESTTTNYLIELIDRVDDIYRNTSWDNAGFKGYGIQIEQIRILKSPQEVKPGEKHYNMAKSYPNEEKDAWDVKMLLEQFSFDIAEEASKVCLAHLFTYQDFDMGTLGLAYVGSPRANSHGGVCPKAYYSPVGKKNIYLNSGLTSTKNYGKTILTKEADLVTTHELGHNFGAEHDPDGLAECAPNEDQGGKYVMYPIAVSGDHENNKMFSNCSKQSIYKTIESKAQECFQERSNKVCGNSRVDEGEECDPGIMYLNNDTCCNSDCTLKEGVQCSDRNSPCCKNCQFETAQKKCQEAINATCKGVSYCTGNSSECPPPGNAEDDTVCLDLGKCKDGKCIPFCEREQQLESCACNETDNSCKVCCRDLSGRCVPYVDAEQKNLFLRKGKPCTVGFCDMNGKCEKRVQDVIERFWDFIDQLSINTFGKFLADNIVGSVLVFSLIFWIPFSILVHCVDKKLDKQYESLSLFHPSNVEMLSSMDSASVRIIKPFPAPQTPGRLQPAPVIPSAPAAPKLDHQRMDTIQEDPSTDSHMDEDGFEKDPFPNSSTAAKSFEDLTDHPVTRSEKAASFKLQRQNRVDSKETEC

Cytotoxicity HepG2 = assay type: cell-based; conditions: human; HepG2
Protocol: (§1) The compounds of examples 1 and 5 were not toxic against the cell lines HepG2, HEK293 and A549 (Table 5). Additionally, the inhibitory effect against P. aeruginosa PA14 was evaluated to exclude an antibacterial effect of the compounds of the present invention. This is important as it was the aim to target virulence and not viability of the bacteria. […]

HDAC-8 = biological target: T1, HDAC-8 (Homo sapiens, UniProt Q9BY41); experiment: Selectivity against human off-targets: HDAC-8; assay type: biochemical; conditions: read-out: IC50 HDAC-8
T1 sequence (Q9BY41 1-377): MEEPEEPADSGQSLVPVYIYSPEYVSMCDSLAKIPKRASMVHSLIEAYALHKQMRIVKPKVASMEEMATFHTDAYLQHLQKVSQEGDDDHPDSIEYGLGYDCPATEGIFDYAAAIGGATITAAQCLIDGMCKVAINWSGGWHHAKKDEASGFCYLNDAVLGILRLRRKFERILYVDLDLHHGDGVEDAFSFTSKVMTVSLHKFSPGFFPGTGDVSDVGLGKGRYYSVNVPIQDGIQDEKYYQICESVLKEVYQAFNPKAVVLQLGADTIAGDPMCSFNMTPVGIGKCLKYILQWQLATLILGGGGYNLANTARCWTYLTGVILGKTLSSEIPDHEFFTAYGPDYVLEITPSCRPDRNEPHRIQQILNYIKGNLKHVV
Description: (§2) The inhibition of zinc-containing human enzymes is described frequently for LasB inhibitors and poses a serious difficulty in the development of selective compounds. Particularly, the inhibition of matrix metalloproteases (MMPs) should be avoided. To further investigate this issue, three derivatives (the compounds of examples 1, 5 and 8) have been tested for their selectivity against several human off-targets, including six MMPs, ADAM17 (TACE), HDAC-3 and HDAC-8 (Table 4). The selectivity of the compounds is particularly high for MMPs and HDACs, whereas the inhibition of ADAM17 was considerably stronger.

MMP-3 = MMP-3 (Homo sapiens, UniProt P08254); experiment: Selectivity against human off-targets: MMP-3; assay type: biochemical; conditions: at 100 μM; read-out: Inhibition [%] MMP-3
MMP-3, sequence (P08254 100-477): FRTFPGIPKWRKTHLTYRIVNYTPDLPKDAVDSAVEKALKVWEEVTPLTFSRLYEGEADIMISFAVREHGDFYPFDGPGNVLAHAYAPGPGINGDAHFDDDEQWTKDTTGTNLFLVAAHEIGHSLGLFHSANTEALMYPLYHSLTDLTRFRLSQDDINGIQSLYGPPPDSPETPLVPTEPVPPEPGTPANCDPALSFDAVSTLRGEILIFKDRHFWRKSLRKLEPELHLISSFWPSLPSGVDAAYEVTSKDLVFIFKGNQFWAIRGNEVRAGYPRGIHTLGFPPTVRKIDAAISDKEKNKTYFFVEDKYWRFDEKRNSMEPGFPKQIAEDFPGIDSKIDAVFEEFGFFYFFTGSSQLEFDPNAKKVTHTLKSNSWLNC
Description: as §2

Cytotoxicity HEK293 = assay type: cell-based; conditions: human; HEK293
Protocol: as §1

P. aeruginosa PA14 = experiment: PA14 inhibition (MIC, antibacterial effect); assay type: cell-based; conditions: Pseudomonas aeruginosa, PA14; read-out: MIC PA14
Protocol: as §1

MMP-1 = biological target: T2, MMP-1 (Homo sapiens, UniProt P03956); experiment: Selectivity against human off-targets: MMP-1; assay type: biochemical; conditions: at 100 μM; read-out: Inhibition [%] MMP-1
T2 sequence (P03956 100-469): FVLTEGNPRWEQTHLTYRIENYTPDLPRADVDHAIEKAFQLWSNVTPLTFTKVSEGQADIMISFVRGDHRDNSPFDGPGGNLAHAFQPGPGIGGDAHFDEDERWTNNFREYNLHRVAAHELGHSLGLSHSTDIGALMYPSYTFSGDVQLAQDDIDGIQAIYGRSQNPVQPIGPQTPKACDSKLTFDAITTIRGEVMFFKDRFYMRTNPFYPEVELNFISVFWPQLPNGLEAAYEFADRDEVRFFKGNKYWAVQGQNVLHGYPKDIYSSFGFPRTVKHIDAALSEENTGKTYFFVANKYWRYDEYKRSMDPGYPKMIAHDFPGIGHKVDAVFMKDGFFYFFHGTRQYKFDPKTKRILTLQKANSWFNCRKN
Description: as §2

MMP-2 = biological target: T3, MMP-2 (Homo sapiens, UniProt P08253); experiment: Selectivity against human off-targets: MMP-2; assay type: biochemical; conditions: at 100 μM; read-out: Inhibition [%] MMP-2
T3 sequence (P08253 110-660): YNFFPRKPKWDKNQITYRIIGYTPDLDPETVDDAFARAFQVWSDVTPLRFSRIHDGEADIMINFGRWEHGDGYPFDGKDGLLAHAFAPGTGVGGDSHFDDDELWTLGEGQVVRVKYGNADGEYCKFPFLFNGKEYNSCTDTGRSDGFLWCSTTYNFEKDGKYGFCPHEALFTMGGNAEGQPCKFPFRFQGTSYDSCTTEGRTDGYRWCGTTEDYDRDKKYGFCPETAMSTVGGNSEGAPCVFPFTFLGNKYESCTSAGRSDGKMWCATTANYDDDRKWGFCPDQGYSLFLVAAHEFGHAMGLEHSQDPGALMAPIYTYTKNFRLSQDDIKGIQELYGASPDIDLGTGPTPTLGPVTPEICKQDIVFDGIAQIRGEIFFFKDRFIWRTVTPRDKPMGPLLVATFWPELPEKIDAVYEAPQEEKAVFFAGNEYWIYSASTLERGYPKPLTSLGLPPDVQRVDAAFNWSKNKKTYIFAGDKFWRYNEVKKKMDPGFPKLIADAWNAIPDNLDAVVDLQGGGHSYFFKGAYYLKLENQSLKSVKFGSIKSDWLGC
Description: as §2

Cytotoxicity A549 = assay type: cell-based; conditions: human; A549
Protocol: as §1

HDAC-3 = HDAC-3 (Homo sapiens, UniProt O15379); experiment: Selectivity against human off-targets: HDAC-3; assay type: biochemical; conditions: read-out: IC50 HDAC-3
HDAC-3, sequence (O15379 whole entry): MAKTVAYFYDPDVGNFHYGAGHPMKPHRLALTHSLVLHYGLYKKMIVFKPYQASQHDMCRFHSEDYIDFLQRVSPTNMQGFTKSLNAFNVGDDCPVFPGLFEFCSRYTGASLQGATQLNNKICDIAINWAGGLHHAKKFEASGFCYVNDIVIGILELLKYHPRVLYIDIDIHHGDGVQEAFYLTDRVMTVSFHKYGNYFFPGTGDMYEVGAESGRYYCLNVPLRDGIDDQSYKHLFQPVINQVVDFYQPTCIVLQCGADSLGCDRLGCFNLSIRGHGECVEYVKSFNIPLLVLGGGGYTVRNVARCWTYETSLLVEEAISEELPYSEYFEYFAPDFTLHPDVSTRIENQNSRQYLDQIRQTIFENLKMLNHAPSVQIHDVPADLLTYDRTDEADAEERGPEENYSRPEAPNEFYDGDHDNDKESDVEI
HDAC-3, sequence (Q9Y618 395-489 partner limits assumed): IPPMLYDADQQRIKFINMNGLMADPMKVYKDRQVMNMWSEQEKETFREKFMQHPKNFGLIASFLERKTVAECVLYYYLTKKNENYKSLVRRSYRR
Description: as §2

LasB, sequence (Q02RJ6 198-498): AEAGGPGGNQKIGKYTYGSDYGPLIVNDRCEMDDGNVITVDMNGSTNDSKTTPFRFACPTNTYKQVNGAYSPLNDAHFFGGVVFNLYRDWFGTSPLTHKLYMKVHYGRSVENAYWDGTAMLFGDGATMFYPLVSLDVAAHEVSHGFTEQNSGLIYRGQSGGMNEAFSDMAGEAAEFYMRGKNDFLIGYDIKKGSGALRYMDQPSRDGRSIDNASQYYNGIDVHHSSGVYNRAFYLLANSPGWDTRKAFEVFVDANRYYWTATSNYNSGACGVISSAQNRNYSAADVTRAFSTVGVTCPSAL

CC(C)CC(C(=O)NCC(=O)Nc1ccc(Cl)c(Cl)c1)P(=O)(O)O (stereo not shown) [Example 163]
IC50 (LasB): 1.756 ± 0.003 µM

CC(C)CC(C(=O)N[C@@H](CC1CC1)C(=O)Nc1ccc(Cl)c(Cl)c1)P(=O)(O)O (stereo partly shown) [Example 164]
IC50 (LasB): 0.027 ± 0.001 µM

CC(C)CC(C(=O)N[C@H](C(=O)Nc1ccc(Cl)c(Cl)c1)c1ccccc1)P(=O)(O)O (stereo partly shown) [Example 165]
IC50 (LasB): 0.1 ± 0.003 µM

CC(C)CC(C(=O)N1CCC[C@H]1C(=O)Nc1ccc(Cl)c(Cl)c1)P(=O)(O)O (stereo partly shown) [Example 166]
IC50 (LasB): 2.54 ± 0.069 µM

CC(C)CC(C(=O)N[C@@H](C(=O)Nc1ccc(Cl)c(Cl)c1)C(C)C)P(=O)(O)O (stereo partly shown) [Example 167]
IC50 (LasB): 0.011 µM

CC(C)CC(C(=O)N[C@H](CC(=O)Nc1ccc(Cl)c(Cl)c1)C(C)C)P(=O)(O)O (stereo partly shown) [Example 168]
IC50 (LasB): 1.76 ± 0.03 µM

CC(C)CC(C(=O)N[C@@H](CC1CCOCC1)C(=O)Nc1ccc(Cl)c(Cl)c1)P(=O)(O)O (stereo partly shown) [Example 169]
IC50 (LasB): 0.378 ± 0.008 µM

Cc1ccc(NC(=O)C(CC(C)C)C(=O)NO)cc1 (stereo not shown) [Example 173, N^1-hydroxy-2-isobutyl-N^3-(p-tolyl)malonamide]
IC50 (ADAM17 (TACE)): 16 ± 2 µM | IC50 (Cytotoxicity HepG2): > 100 µM | IC50 (HDAC-8): > 100 µM | inhibition at 100 µM (MMP-3): 16 ± 7% | IC50 (Cytotoxicity HEK293): > 100 µM | MIC (P. aeruginosa PA14): > 100 µM | IC50 (LasB): 0.014 ± 0.001 µM | inhibition at 100 µM (MMP-1): 29 ± 3% | inhibition at 100 µM (MMP-2): 26 ± 2% | IC50 (Cytotoxicity A549): > 100 µM | IC50 (HDAC-3): > 100 µM

Cc1ccc(NC(=O)C(CC(C)C)n2ccnn2)cc1 (stereo not shown) [Example 174, 4-Methyl-N-(p-tolyl)-2-(1H-1,2,3-triazol-1-yl)pentanamide]
IC50 (ADAM17 (TACE)): > 100 µM | IC50 (Cytotoxicity HepG2): > 100 µM | IC50 (HDAC-8): > 100 µM | inhibition at 100 µM (MMP-3): -3 ± 17% | IC50 (Cytotoxicity HEK293): > 100 µM | MIC (P. aeruginosa PA14): > 100 µM | IC50 (LasB): 2.8 ± 0.1 µM | IC50 (Cytotoxicity A549): > 100 µM | IC50 (HDAC-3): > 100 µM

CC(C)CC(C(=O)Nc1ccc(Cl)c(Cl)c1)n1ccnn1 (stereo not shown) [Example 175]
IC50 (LasB): 4.3 ± 0.2 µM

CC(C)CC(C(=O)Nc1ccc(OCc2ccc(Cl)c(Cl)c2)cc1)n1ccnn1 (stereo not shown) [Example 176]
IC50 (LasB): 45.6 µM

Cc1ccc(NC(=O)C(CC(C)C)n2nccn2)cc1 (stereo not shown) [Example 177, 4-Methyl-N-(p-tolyl)-2-(2H-1,2,3-triazol-2-yl)pentanamide]
IC50 (ADAM17 (TACE)): > 100 µM | IC50 (Cytotoxicity HepG2): > 100 µM | IC50 (HDAC-8): > 100 µM | IC50 (Cytotoxicity HEK293): > 100 µM | MIC (P. aeruginosa PA14): > 100 µM | IC50 (LasB): 5.3 ± 0.2 µM | inhibition at 100 µM (MMP-1): 7 ± 4% | IC50 (Cytotoxicity A549): > 100 µM | IC50 (HDAC-3): > 100 µM

CC(C)CC(C(=O)Nc1ccc(Cl)c(Cl)c1)n1nccn1 (stereo not shown) [Example 178]
IC50 (LasB): 5.5 ± 0.2 µM

CC(C)CC(C(=O)Nc1ccc(OCc2ccc(Cl)c(Cl)c2)cc1)n1nccn1 (stereo not shown) [Example 179]
IC50 (LasB): 30 µM
